ChEMBL document CHEMBL1153997, “Discovery of oxazolo[4,5-b]pyridines and related heterocyclic analogs as novel SIRT1 activators” (Bioorg Med Chem Lett, 2009)

How the values were obtained:
[1] = biological target: T1, NAD-dependent protein deacetylase sirtuin-1 (Homo sapiens) (UniProt Q96EB6); assay: Activation of human SIRT1 expressed in Escherichia coli BL21 (DE3) assessed as concentration required to increase 50% enzyme activity by fluorescence polarization assay
T1 sequence (whole entry): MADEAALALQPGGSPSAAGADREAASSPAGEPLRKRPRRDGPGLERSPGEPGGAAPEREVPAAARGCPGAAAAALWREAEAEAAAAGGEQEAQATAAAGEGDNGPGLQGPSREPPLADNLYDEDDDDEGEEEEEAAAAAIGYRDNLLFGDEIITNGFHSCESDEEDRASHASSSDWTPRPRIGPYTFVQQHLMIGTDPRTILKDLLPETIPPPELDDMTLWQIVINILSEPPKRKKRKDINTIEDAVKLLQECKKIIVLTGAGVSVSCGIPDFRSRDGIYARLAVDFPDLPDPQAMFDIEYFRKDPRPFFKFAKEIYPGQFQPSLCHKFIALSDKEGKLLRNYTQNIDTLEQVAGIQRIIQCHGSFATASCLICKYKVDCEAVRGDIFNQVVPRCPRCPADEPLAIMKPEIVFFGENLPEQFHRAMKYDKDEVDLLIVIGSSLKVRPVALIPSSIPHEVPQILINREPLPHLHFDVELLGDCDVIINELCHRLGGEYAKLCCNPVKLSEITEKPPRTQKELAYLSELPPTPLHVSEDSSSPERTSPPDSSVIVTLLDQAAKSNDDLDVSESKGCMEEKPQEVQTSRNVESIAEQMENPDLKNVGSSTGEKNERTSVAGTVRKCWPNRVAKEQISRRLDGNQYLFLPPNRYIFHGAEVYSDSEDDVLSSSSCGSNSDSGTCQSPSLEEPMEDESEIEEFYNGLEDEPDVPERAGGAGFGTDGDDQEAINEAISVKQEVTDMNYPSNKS

[2] = biological target: T1, NAD-dependent protein deacetylase sirtuin-1 (Homo sapiens); assay: Activation of human SIRT1 expressed in Escherichia coli BL21 (DE3) assessed as maximum activation of enzyme activity by fluorescence polarization assay

Structure (SMILES) | EC1.5 [1] | max activation [2]
O=C(Nc1ccccc1-c1nc2ccccc2[nH]1)c1cnc2ccccc2n1 | 0.3 µM | 253%
CN(C)CCNC(=O)c1cc(NC(=O)c2cccc(N(C)C)c2)cc(-c2nc3ncccc3o2)c1 | 1.8 µM | 330%
Oc1ccc(/C=C/c2cc(O)cc(O)c2)cc1 | – | 200%
COc1cc(C)ccc1C(=O)Nc1ccc(-c2nc3ncccc3[nH]2)cc1 | 2.3 µM | 150%
COc1ccc(C(=O)Nc2cc(CN3CCNCC3)cc(-c3nc4ncccc4o3)c2)cc1OC | 1.1 µM | 240%
CN(C)c1cccc(C(=O)Nc2ccc(-c3nc4ncccc4o3)cc2)c1 | > 100 µM | –
CN(C)c1cccc(C(=O)Nc2ccccc2-c2nc3ncccc3o2)c1 | 4.4 µM | 209%
COc1ccc(C(=O)Nc2cc(C(=O)NCCN(C)C)cc(-c3nc4ncccc4o3)c2)cc1OC | 0.7 µM | 240%
COc1cc(C)ccc1C(=O)Nc1ccccc1-c1nc2ncccc2[nH]1 | 4.1 µM | 250%
COc1ccc(C(=O)Nc2ccccc2-c2nc3ccccc3[nH]2)cc1OC | 0.4 µM | 595%
COc1ccc(C(=O)Nc2ccc(-c3nc4ncccc4[nH]3)cc2)cc1OC | 1.6 µM | 180%
COc1cc(OC)cc(C(=O)Nc2ccccc2-c2nc3ccccc3[nH]2)c1 | 1.7 µM | 180%
CN(C)c1cccc(C(=O)Nc2cccc(-c3nc4ncccc4o3)c2)c1 | 25 µM | 207%
COc1ccc(C(=O)Nc2cccc(-c3nc4ncccc4[nH]3)c2)cc1OC | 1.4 µM | 324%
COc1ccc(C(=O)Nc2ccc(-c3nc4ncccc4o3)cc2)cc1OC | > 100 µM | –
COc1ccc(C(=O)Nc2cccc(-c3nc4ncccc4o3)c2)cc1OC | 6 µM | 240%
CN(C)c1ccc(C(=O)Nc2ccccc2-c2nc3ncccc3[nH]2)cc1 | 0.7 µM | 230%
COc1ccc(C(=O)Nc2cc(CN(C)C)cc(-c3nc4ncccc4o3)c2)cc1OC | 1.1 µM | 200%
COc1ccc(C(=O)Nc2ccccc2-c2nc3ncccc3[nH]2)cc1OC | 0.5 µM | 270%
O=C(Nc1ccc(CN2CCNCC2)cc1-c1nc2ccccc2[nH]1)c1cnc2ccccc2n1 | 0.4 µM | 820%
COc1ccc(C(=O)Nc2ccccc2-c2nc3ncccc3o2)cc1OC | 0.9 µM | 170%
COc1ccc(C(=O)Nc2ccccc2-c2nc3ccccc3[nH]2)cc1CN1CCOCC1 | 0.5 µM | 314%
COc1ccc(C(=O)Nc2cccc(-c3nc4ncccc4[nH]3)c2)c(OC)c1 | 0.5 µM | 232%
COc1ccc(C(=O)Nc2cc(CN3CCNCC3)cc(-c3nc4ncccc4o3)c2)c(OC)c1 | 0.5 µM | 220%
O=C(Nc1ccccc1-c1nc2ncccc2[nH]1)c1ccc(N2CCOCC2)cc1 | 0.9 µM | 273%
